Where two headings read alike, the source gives them in different places.
Tests used:
[1] = test system: KsIAA16R in combination with KsAFB6; assay: Yeast two-hybrid (Y2H) assay: KsIAA16R binding with KsAFB6 in presence of auxin; design: species or system Kochia scoparia
Method: (§1) Yeast two-hybrid (Y2H) studies were conducted using the Matchmaker® Gold Yeast Two-Hybrid System: vectors, transformation protocols and yeast strains (Clonetech Laboratories, Inc.). The coding sequences for the KsIAA16R (SEQ ID NO: 220), KsIAA16S (SEQ ID NO: 218), KsTIR1 (SEQ ID NO: 285), KsAFB6 (SEQ ID NO: 287), KsAFB2 (SEQ ID NO: 289), and KsAFB5 (SEQ ID NO: 291) were PCR amplified using primers specified in Table 2.
(§2) PCR products were gel purified and recombined into NdeI/NotI digested pGADT7 or pGBKT7 vectors using the In-Fusion® cloning system (Clonetech Laboratories, Inc.). The pGBKT7 vector contained the GAL4 DNA binding domain, rendering the fusions as the “bait,” whereas the “prey” were the fusions containing the pGADT7 vector, which contained the GAL4 activation domain. All vectors were first sequence verified and then the listed vector combinations were co-transformed into the yeast strain, Y2HGold. […] Transformants were plated on SC-Trp-Leu plates to select for those containing both plasmids. Four healthy colonies were selected at random and resuspended into 300 μL of 0.1% agar in water. Five μL of this dilution was replica spotted onto each plate. Plates were incubated at 30° C. for 3 days prior to evaluation of colony growth.
(§3) This method enabled the study of the binding/interaction of the Kochia R and S alleles of KsIAA16 with each of the Kochia TIR/AFB homologs (KsTIR1 (SEQ ID NO: 285), and KsAFB6 (SEQ ID NO: 287)) in the absence or presence of 100 μM or 500 μM exogenous concentrations of IAA, NAA, dicamba, and 2,4-D, picloram, triclopyr, quinclorac, fluroxypyr or phenylacetic acid (PAA).

[2] = test system: KsIAA16 (R and S alleles) with KsTIR1 and/or KsAFB6; assay: Y2H assay, summary statements over the protein combinations tested; format: binding, Kochia scoparia; conditions: for Facilitation of interaction of KsIAA16R with KsTIR1 and/or KsAFB6: at the concentrations tested
Method: as §1, §2, §3

[3] = test system: seedlings of the R and S Kochia biotypes; assay: Root elongation response of Kochia seedlings; format: in vivo, Kochia scoparia; conditions: R biotype seedlings; FIG. 5
Method: The root elongation response of seedlings from the R and S Kochia biotypes was tested to determine if the R biotype response was consistent with the Y2H findings. For root elongation studies, plant nutrient media was used, with 0.5% sucrose. Seeds were surface sterilized in 30% bleach with 0.1% Triton-X100 for 10 to 30 minutes, then rinsed twice in sterile water and resuspended in 0.1% agar for plating. Root lengths were measured to the nearest millimeter, and the average root length of 12 individuals was calculated unless otherwise noted.

[4] = test system: transgenic Arabidopsis carrying AtIAA16P:KsIAA16 constructs; assay: Root elongation inhibition assay of T2 transgenic Arabidopsis on plant nutrient plus IAA or dicamba; format: in vivo, Arabidopsis thaliana; conditions: for Root Length (in mm) of T2 transgenics on plant nutrient plus auxin / Root Length (in mm) on plant nutrient plus auxin: +5 μM auxin; for Root Length (in mm) on plant nutrient plus auxin: non-transgenic WT
Source text: To determine if the presence of the KsIAA16R allele alone was necessary and sufficient to confer dicamba resistance, several transgene expression constructs were generated for study of KsIAA16 in Arabidopsis. Agrobacterium tumefaciens was used to introduce the binary vectors in the plants using the floral dip method (Clough and Bent, 1998). Vectors contained either the ethanol inducible alcA promoter elements (Salter et al., 1998), the constitutive CaMV35S promoter, or the native Arabidopsis IAA16 promoter (AtIAA16P) driving either KsIAA16R (SEQ ID NO: 220) or KsIAA16S (SEQ ID NO: 218). GUS reporter constructs contained a 2.5 kb genomic DNA fragment from directly upstream of KsIAA16, which is expected to contain most of the promoter elements as well as the 5′UTR, driving uidA. All constructs contained either a Spectinomycin resistance gene (SPEC) or a glufosinate resistance gene (BAR) in the T-DNA region to serve as the selectable marker. For all constructs, T1 seed was harvested, surface sterilized, and plated on the appropriate selective media to identify independent T1 transformants. Single seed decent and segregation on selective media was used to estimate transgene insertion number and identify homozygous lines. For induction of the P-Alc promoter, ethanol was added to a final concentration of 0.01% just before plates were poured, and plates were used immediately. All plates were grown in a Percival growth chamber (Percival Scientific, Inc.) at 22° C. with 16 hour day/8 hour night light cycle and a light intensity of […]. Relative humidity was maintained at 50%. GUS assays were performed according to standard protocols. Briefly, a 20 mg/mL X-Gluc (GoldBio, St. Louis, Mo.) stock in dimethylformamide was diluted into 50 mM phosphate buffer, pH 7.0, to a final concentration of 1 mg/mL. This solution was added to plant tissues, and samples were placed under vacuum for 5 minutes to ensure penetration of the solution into the tissues. Samples were covered in foil to prevent light entry and place at 37° C. for 24 hours to allow color development. Staining solution was removed and chlorophyll was cleared by incubating samples in 50% ethanol for several hours.

R and S Kochia biotypes = assay: Greenhouse spray test for cross-resistance of Kochia R-biotype; format: in vivo, Kochia scoparia; conditions: all treatments, track sprayer, 10 to 15 cm tall plants
Source text: To elucidate whether the Kochia R-biotype is cross resistant to 2,4-D or fluroxypyr, greenhouse grown 10 to 15 cm tall Kochia plants were sprayed with either Dicamba at 0,140, 280, 560, 2240, 4480, 6720, 8960, or 17920 g a.e.ha^−1; 2,4-D at 0, 70, 140, 280, 560, 1120, 2240, 4480, 6720, 8960 g a.e.ha^−1 or fluroxypyr at 0, 17.5, 35, 70, 140, 280, 420, 560, 1120, 2240 g a.e.ha^−1 with a track sprayer. […]

[5] = test system: KsIAA16S in combination with KsTIR1; assay: Yeast two-hybrid (Y2H) assay: KsIAA16S binding with KsTIR1 in presence of auxin; design: species or system Kochia scoparia; conditions: allele KsIAA16S, yeast colony growth
Method: as §1
(§4) PCR products were gel purified and recombined into NdeI/NotI digested pGADT7 or pGBKT7 vectors using the In-Fusion® cloning system (Clonetech Laboratories, Inc.). The pGBKT7 vector contained the GAL4 DNA binding domain, rendering the fusions as the “bait,” whereas the “prey” were the fusions containing the pGADT7 vector, which contained the GAL4 activation domain. All vectors were first sequence verified and then the listed vector combinations were co-transformed into the yeast strain, Y2HGold. […] Transformants were plated on SC-Trp-Leu plates to select for those containing both plasmids. Four healthy colonies were selected at random and resuspended into 300 μL of 0.1% agar in water. Five μL of this dilution was replica spotted onto each plate. Plates were incubated at 30° C. for 3 days prior to evaluation of colony growth. […]

[6] = test system: KsIAA16R in combination with KsTIR1; assay: Yeast two-hybrid (Y2H) assay: KsIAA16R binding with KsTIR1 in presence of auxin; design: species or system Kochia scoparia; conditions: compared with KsIAA16S; concentration not given
Method: as §1, §4

[7] = test system: Kochia F2 progeny (S/S, R/S, R/R); conditions: spray 1120 g/ha
Method: To determine whether the KsIAA16R allele co-segregates with the dicamba resistance phenotype, spray tests were performed on Kochia populations comprising S and R plants. Crosses between S and R individuals were performed, utilizing the S biotype as the female and the R biotype as the male in order to identify individuals resulting from cross pollination. […] Several verified heterozygous F1 plants were selected for F2 seed production. In addition, a subset of S/S and R/S individuals from the F1 generation was subjected to dicamba sprays to ensure that the marker could effectively identify the R allele.
To determine whether the KsIAA16R allele co-segregates with the dicamba resistance phenotype, 720 F2 progeny from verified heterozygous F1 parental plants were sampled and genotyped, and tolerance to a dicamba spray concentration double the typical dicamba field use rate (1120 g/ha) was determined. Plant identity was maintained throughout the experiment, and genotype and percent visible dicamba injury was determined for each of the F2 progeny.

[8] = test system: dicamba resistant Kochia biotype
[9] = test system: KsIAA16S in combination with KsAFB6; assay: Yeast two-hybrid (Y2H) assay: KsIAA16S binding with KsAFB6 in presence of auxin; design: species or system Kochia scoparia; conditions: allele KsIAA16S; auxin 500 μM; yeast colony growth
Method: as §1, §4

SMILES | Facilitation of interaction of KsIAA16R with KsTIR1 and/or KsAFB6 [2] | Root elongation inhibition of the R Kochia biotype [3] | Root Length (in mm) of T2 transgenics on plant nutrient plus auxin ([4]; line AtIAA16P:KsIAA16R_T2-1) | Root Length (in mm) of T2 transgenics on plant nutrient plus auxin ([4]; line AtIAA16P:KsIAA16R_T2-2) | Root Length (in mm) of T2 transgenics on plant nutrient plus auxin ([4]; line AtIAA16P:KsIAA16R_T2-3) | Root Length (in mm) of T2 transgenics on plant nutrient plus auxin ([4]; line AtIAA16P:KsIAA16R_T2-4) | Root Length (in mm) of T2 transgenics on plant nutrient plus auxin ([4]; line AtIAA16P:KsIAA16S_T2-1) | Root Length (in mm) of T2 transgenics on plant nutrient plus auxin ([4]; line AtIAA16P:KsIAA16S_T2-2) | Root Length (in mm) of T2 transgenics on plant nutrient plus auxin ([4]; line AtIAA16P:KsIAA16S_T2-3) | Root Length (in mm) of T2 transgenics on plant nutrient plus auxin ([4]; line AtIAA16P:KsIAA16S_T2-4) | Root Length (in mm) on plant nutrient plus auxin [4] | Visible injury at 14 days after treatment (DAT) (R and S Kochia biotypes) | also measured
O=C(O)Cc1c[nH]c2ccccc12 [IAA, indole-3-acetic acid] | can facilitate some interaction | remained sensitive | 12.17 ± 1.01 mm | 18.17 ± 3.09 mm | 22.75 ± 2.09 mm | 27.25 ± 1.88 mm | 7.0 ± 0.77 mm | 9.5 ± 0.84 mm | 5.67 ± 0.54 mm | 5 ± 0.34 mm | 5.83 ± 0.24 mm |  | Ability of KsIAA16R to interact with KsAFB6 in the presence of the auxin ([1]; only the higher concentration could facilitate binding): reduced ability to interact; Resistance to root inhibition ([4]; several lines from both constructs): slight resistance
Nc1c(Cl)c(F)nc(OCC(=O)O)c1Cl [Fluroxypyr, 4-amino-3,5-dichloro-6-fluoro-2-pyridyloxyacetic acid] | cannot |  |  |  |  |  |  |  |  |  |  | observed | Y2H interaction in the presence of the auxin ([2]; any of the protein combinations tested): No interaction
COc1c(Cl)ccc(Cl)c1C(=O)O [Dicamba, 3,6-dichloro-2-methoxybenzoic acid] | cannot | resistant | 12.42 ± 1.27 mm | 15.5 ± 1.45 mm | 15.58 ± 1.57 mm | 17.5 ± 2.12 mm | 13.50 ± 1.01 mm | 11.42 ± 1.28 mm | 14.17 ± 0.9 mm | 10.67 ± 0.72 mm | 9.08 ± 0.66 mm | observed | Ability to bind in combination with KsTIR1 ([5]; auxin [100 mM] (text: 100 μM)): exhibited interaction; Ability to bind in combination with KsTIR1 ([5]; auxin [500 mM] (text: 500 μM)): exhibited interaction; Ability of KsIAA16R to interact with KsTIR1 in the presence of the auxin [6]: decreased ability to interact; mean injury rating ([7]; R/R individuals): 24.6%; mean injury rating ([7]; R/S individuals): 35.9%; mean injury rating ([7]; S/S individuals): 82.3%; average injury per genotype (percent visible dicamba injury) ([7]; genotype R/R): about 20%; average injury per genotype (percent visible dicamba injury) ([7]; genotype R/S): about 40%; average injury per genotype (percent visible dicamba injury) ([7]; genotype S/S): about 80%; Resistance in root elongation inhibition assay ([4]; four independent transformant lines carrying AtIAA16P:KsIAA16R): showed resistance; Resistance in root elongation inhibition assay ([4]; only one of the four lines carrying AtIAA16P:KsIAA16S): very slight resistance; fold increase in dicamba resistance [8]: ~30 fold
O=C(O)c1c(Cl)ccc2cc(Cl)cnc12 [Quinclorac, 3,7-dichloro-8-quinolinecarboxylic acid] | cannot |  |  |  |  |  |  |  |  |  |  |  | Ability to bind in combination with KsAFB6 [9]: observed to interact; Interaction between KsIAA16R and KsAFB6 in the presence of the auxin ([1]; at the concentrations tested): not observed

Reference: patent publication US11352637B2, “Methods and compositions for herbicide tolerance in plants” (MONSANTO TECHNOLOGY LLC, priority 2017, dated 2022)
